Laboratory results from US12492210B2, “Tricyclic compounds and their use” (HUTCHISON MEDIPHARMA LIMITED, priority 2019, dated 2025).

Legend:
[1] = target: T1, MAPK1(ERK2) enzyme (Homo sapiens, UniProt P28482); assay: Z-Lyte Kinase Assay of ERK2; type: biochemical; details: read-out: Example 18 IC50
T1 construct: purchased Invitrogen PV3313
Protocol: Example 18: Z-Lyte Kinase Assay of ERK2
1. Materials and Reagents:
2. Reaction Steps: Plate Map
3. Solution Preparation • 1) 1.33× Kinase Buffer: Dilute 5× Kinase Buffer to 1.33× with ddH2O • 2) 4× Test Compounds: Serially dilute the test compounds to 4 folds of the concentrations desired, keeping the DMSO concentration at 8%. The final concentrations are 1, 0.33, 0.11, 0.037, 0.012, 0.004, 0.0014, 0.00046 μM, and the final concentration of DMSO is 2%. • 3) Kinase/Peptide Mixture (P/K solution): Prepare Kinase/Peptide Mixture by diluting the kinase to 0.6 μg/ml and the Z-LYTE™ Ser/Thr3 peptide to 4 μM in 1.33× Kinase Buffer. Mix gently by pipetting. • 4) Phospho-peptide Solution (PP solution): Add 0.4 μl of Z-LYTE™ Ser/Thr3 Phospho-peptide to 99.6 μl of 1.33× Kinase Buffer. • 5) ATP Solution: Prepare ATP Solution by diluting the 10 mM of ATP in 1.33× Kinase Buffer to 100 μM. • 6) Development Solution: Dilute Development Reagent A with Development Buffer as 1:1024. 4. Reaction • 1) Kinase reaction (10 μl of Volume) • a. In a 384-well plate, add 2.5 μl of 4× test Cpds to each well except C1, C2, C3 wells Add 2.5 μl of 8% DMSO to C1, C2, C3 wells • b. Put the plate on ice • c. Add 5 μl of P/K mixture to each test Cpd wells and C1, C2 wells • d. Add 5 μl of PP Solution to C3 well • e. Add 2.5 μl of 1.33× kinase buffer to C1 and C3 wells • f. Add 2.5 μl of 4×ATP Solution to each test Cpd wells and C2 well, respectively. Shake the plate for 30 Sec and centrifuge (1500 rpm, 1 min) • g. Seal the plate to protect from the light and incubate the plate for 1 hour at RT (25-30° C.) • 2) Development reaction • a. Add 5 μl of the Development solution to all wells • b. Shake the plate for 30 sec and centrifuge (1500 rpm, 1 min) • c. Seal the plate to protect from the light and incubate the plate for 1 hour at RT (25-30° C.) • 3) Stop and read • a. Add 5 μl of the Stop reagent to all wells • b. Shake the plate for 30 sec and centrifuge (1500 rpm, 1 min) • c. Measure the value of coumarin (Ex400 nm, Em445 nm) and fluorescein (Ex400 nm, Em520 nm), respectively. 5. Data Analysis Emission Ratio(ER)=Coumarin Emission (445 nm)/Fluorescein Emission (520 nm) % Phosphorylation=1−[ER×C3520nm−C3445nm]/[(C1445nm−C3445nm)+ER×(C3520nm−C1520nm)] Inhibition rate (IR)=1−% Photest Cpd% PhoC2 6. IC50 Value: determine IC50 with add-in software for Microsoft Excel, XLfit™ (version 2.0) from ID Business Solutions (Guildford, UK)

[2] = system: p-RSK (Thr359) in colo205 cells; assay: p-RSK (Thr359) Acumen Assay in Colo205; type: cell-based; details: Homo sapiens, COLO 205, 1 hour compound incubation, read-out: Example 19 IC50
Protocol: Example 19: p-RSK (Thr359) Acumen Assay in Colo205
• Phospho-p90RSK (Thr359) (D1E9) Rabbit mAb: cell signal, #8753 • Alexa Fluor® 488 donkey anti-rabbit IgG: invitrogen, #A-21206 • Propidium Iodide: Sigma, #p4170 • 4% Paraformaldehyde: SCRC, #DF021 • 10% Triton X-100: PIERCE, #28314 • 96-well plate (black with clear bottom): BD, #354640 • Acumen® eX3 (A Multilaser Microplate Cytometer For Enhanced High Content Screening): TTP LabTech 3. Acumen Assay Protocol • Seed 4000 cells in 100 μl 10% FBS/well into 96-well plate, incubate at 37° C., 5% CO2, overnight. • Dilute the compound to 3, 1, 0.33, 0.11, 0.037, 0.012, 0.004, 0.001 μM, keeping the DMSO concentration at 5%. Add 10 μl of diluted compound per well and incubate at 37° C., 5% CO2 for 1 hour. • Add 100 μl of 4% pre-warmed Paraformaldehyde (2% final), and incubate for 45 min at room temperature. • Remove paraformaldehyde solutions. Add 100 μl of ice-cold 0.1% Triton to fixed cells at room temperature for 30 min. • Wash twice with 150 μl PBS and incubate with 100 μl blocking buffer (1% BSA, in PBS) for 2˜3 hours at room temperature, seal the plate. • Wash once with PBS and incubate with 35 μl p-RSK (Thr359) (1:1000 dilution) overnight at 4° C. Seal the plate. • Wash twice with PBS and incubate for 1.5 hours at room temperature with 35 μl of Alexa Fluor® 488 donkey anti-rabbit IgG at a 1:1,000 dilution in antibody dilution buffer (0.1% BSA, in PBS). Cover plate in foil to keep out of light. • Wash twice with 150 μl PBS. Add 35 μl of 1.5 μM Propidium Iodide stock to each well to determine cell number, seal the plate. • Incubate at room temperature for 30 min. Load the plate into the Acumen Explorer and scan with the appropriate instrument settings. 4. Data Analysis
[formula] Note: • Percentagecompound well represents the positive percentage of cells treated by compound. • Percentagemin well represents the positive percentage of cells treated with 3 uM GDC0994. • Percentagemax well represents the positive percentage of cells without compounds treatment. 5. IC50 Value: determine IC50 with add-in software for Microsoft Excel, XLfit™ (version 2.0) from ID Business Solutions (Guildford, UK)

T1 sequence (P28482 whole entry): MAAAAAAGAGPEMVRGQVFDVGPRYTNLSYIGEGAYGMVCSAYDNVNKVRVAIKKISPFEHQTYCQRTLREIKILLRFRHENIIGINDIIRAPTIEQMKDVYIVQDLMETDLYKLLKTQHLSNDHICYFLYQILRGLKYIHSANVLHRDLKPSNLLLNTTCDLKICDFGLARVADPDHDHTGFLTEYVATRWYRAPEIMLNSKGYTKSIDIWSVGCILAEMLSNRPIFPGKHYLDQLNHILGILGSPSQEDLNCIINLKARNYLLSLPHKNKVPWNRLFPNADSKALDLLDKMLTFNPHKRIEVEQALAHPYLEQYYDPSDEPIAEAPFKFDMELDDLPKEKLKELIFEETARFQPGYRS

| Compound | IC50 [1] [nM] | IC50 [2] [nM] |
| --- | --- | --- |
| Cc1cnc(Nc2ccnn2C)nc1-c1cc2n(c1)CCn1c-2nnc1C(F)(F)c1ccccc1F [Compound 70] | ≤ 5 | ≤ 100 |
| Cc1nonc1Cc1nnc2n1CCCn1cc(-c3cc(Nc4ccnn4C)ncc3Cl)cc1-2 [Compound 10] | ≤ 5 | > 100 |
| Cc1cnc(Nc2ccnn2C)cc1-c1cc2n(c1)C[C@H](CF)n1c-2nnc1C(F)(F)C(F)F [Compound 62] | ≤ 5 | ≤ 100 |
| Cn1nccc1Nc1nccc(-c2cc3n(c2)CCn2c(COc4ccccc4F)nnc2-3)n1 [Compound 3] | ≤ 5 | ≤ 100 |
| Cc1cnc(Nc2ccnn2C)nc1-c1cc2n(c1)CCCn1c-2nnc1C1(C(F)(F)F)CCCC1 [Compound 28] | ≤ 5 | ≤ 100 |
| C[C@H]1Cn2cc(-c3ccnc(Nc4ccnn4C)n3)cc2-c2nnc(C(F)(F)c3ccccc3F)n21 [Compound 71] | ≤ 5 | ≤ 100 |
| Cn1nccc1Nc1nccc(-c2cc3n(c2)CCCn2c(Cc4ccccc4Cl)nnc2-3)n1 [Compound 8] | ≤ 5 | > 100 |
| Cc1cnc(Nc2ccnn2C)cc1-c1cc2n(c1)CC(F)(F)Cn1c-2nnc1C1(C(F)(F)F)CC1 [Compound 87] | ≤ 5 | ≤ 100 |
| Cn1nccc1Nc1cc(-c2cc3n(c2)CC(F)(F)Cn2c-3nnc2C2(C(F)(F)F)CC2)c(Cl)cn1 [Compound 140] | ≤ 5 | ≤ 100 |

Other lines, results leading:

| IC50 [1] [nM] | IC50 [2] [nM] | Compound |
| --- | --- | --- |
| > 10 | > 100 | Cc1cnc(Nc2ccnn2C(C)C)nc1-c1cc2n(c1)C[C@H](C)n1c-2nnc1C(F)(F)c1ccccc1F [Compound 292] |
| > 10 | ≤ 100 | Cc1cnc(Nc2ccnn2C(F)F)nc1-c1cc2n(c1)C[C@H](C)n1c-2nnc1C(F)(F)c1ccccc1F [Compound 187] |
| > 10 | ≤ 100 | Cn1nccc1Nc1cc(-c2cc3n(c2)C[C@H](CF)n2c-3nnc2C(F)(F)c2ccccc2Cl)c(F)cn1 [Compound 192] |
| ≤ 5 | ≤ 100 | Cc1cnc(Nc2ccnn2C)nc1-c1cc2c3nnc(Cc4cccc(F)c4)n3ccn2c1 [Compound 283] |
| > 10 | > 100 | Cn1nccc1Nc1cc(-c2cc3n(c2)[C@H]2CC[C@H](C2)n2c-3nnc2C2(C(F)(F)F)CCC2)c(Cl)cn1 [Compound 267] |
| 5 to 10 | > 100 | Cc1cnc(Nc2c(F)cnn2C)nc1-c1cc2n(c1)C[C@H](C)n1c-2nnc1C(F)(F)c1ccccc1F [Compound 290] |
| ≤ 5 | ≤ 100 | Cn1nccc1Nc1cc(-c2cc3n(c2)C[C@H](CF)n2c-3nnc2C(F)(F)c2ccnn2C)c(Cl)cn1 [Compound 154] |
| 5 to 10 | ≤ 100 | C[C@H]1Cn2cc(-c3cc(Nc4ccnn4C)ncc3Cl)cc2-c2nnc(C(F)(F)n3cc(Cl)cn3)n21 [Compound 157] |
| ≤ 5 | > 100 | Cc1cccnc1C(F)(F)c1nnc2n1[C@@H](CF)Cn1cc(-c3cc(Nc4ccnn4C)ncc3Cl)cc1-2 [Compound 175] |
